The text below walks through data of PMC5271370, “A High-Content Assay Enables the Automated Screening and Identification of Small Molecules with Specific ALDH1A1-Inhibitory Activity” (PLoS ONE, 2017).

Test [1] concerns the target T1, Human ALDH1A1 (Homo sapiens, UniProt P00352).
T1 construct: made in house
T1 sequence (P00352 1-501): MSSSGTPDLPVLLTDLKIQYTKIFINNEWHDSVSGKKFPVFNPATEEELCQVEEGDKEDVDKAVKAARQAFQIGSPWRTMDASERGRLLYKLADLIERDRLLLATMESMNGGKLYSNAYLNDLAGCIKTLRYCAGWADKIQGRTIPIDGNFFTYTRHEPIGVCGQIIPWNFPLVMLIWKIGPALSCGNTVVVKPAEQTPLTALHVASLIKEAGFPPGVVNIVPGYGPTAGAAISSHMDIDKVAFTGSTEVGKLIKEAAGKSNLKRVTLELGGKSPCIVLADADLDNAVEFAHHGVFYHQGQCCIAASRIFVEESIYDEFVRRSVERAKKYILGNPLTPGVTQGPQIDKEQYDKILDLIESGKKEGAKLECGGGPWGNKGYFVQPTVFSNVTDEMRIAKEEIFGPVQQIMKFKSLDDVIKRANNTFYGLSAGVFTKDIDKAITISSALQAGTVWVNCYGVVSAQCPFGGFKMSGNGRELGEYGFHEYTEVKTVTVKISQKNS
The experiment in a line: 1,536-well enzymatic assay (NADH fluorescence), ALDH1A1. In kind it is biochemical. From the text: (§1) To validate our optimized assay, we assembled a set of 20 previously reported ALDH inhibitors, with varying degrees of target specificity (Table 1 and S4 Fig). […] Briefly, the assay measures the dehydrogenase activity of recombinant human ALDH1A1, ALDH1A2, ALDH1A3, ALDH2 or ALDH3A1 using NAD(P)^+ and either propionaldehyde or benzaldehyde as substrates. An orthogonal resorufin-based assay format was also run with isolated ALDH1A1 to rule out potential false positives due to intrinsic compound fluorescence.
(§2) Human ALDH1A1 and ALDH3A1 were expressed and purified as described elsewhere. Human ALDH2 was purchased from Abcam (ab87415). Human ALDH1A2 and ALDH1A3 were purchased from MyBioSource (MBS1005929; San Diego, CA) and ThermoFisher (11636H07E50), respectively. The inhibitory activity of compounds against ALDHs was measured according to protocols described previously. Briefly, 3 μL of enzyme (final concentrations of 20 nM for ALDH1A1, 50 nM for ALDH1A2, 50 nM for ALDH1A3, 75 nM for ALDH2 and 5 nM for ALDH3A1) in assay buffer (100 mM HEPES pH 7.5 with 0.01% Tween 20) were dispensed into a 1,536-well solid-bottom black plate (Greiner Bio One, Monroe, NC). […] Samples were incubated (room temperature, protected from light) for 15 minutes followed by a 1 μL substrate addition of NAD^+ and Propionaldehyde (final concentrations of 1 mM and 80 μM, respectively) for ALDH1A1, 1A2, 1A3, and ALDH2 or NADP^+ and benzaldehyde (final concentrations of 1 mM and 200 μM, respectively) for ALDH3A1. Plates were centrifuged at 1,000 rpm for 15 seconds, then read in kinetic mode on a ViewLux High-throughput CCD imager (PerkinElmer, Waltham, MA) equipped with standard UV fluorescence optics (340 nm excitation, 450 nm emission) for 5 (ALDH1A1, ALDH1A2, ALDH2, ALDH3A1) or 30 (ALDH1A3) minutes. The change in fluorescence intensity over the 5- or 30-minute reaction period was normalized against no-inhibitor and no-enzyme controls and the resulting percent inhibition data were fitted to a 4-parameter Hill equation. Bay-11 7085 was used as intraplate control. To account for artifacts due to intrinsic compound fluorescence in the above spectrum, compounds were also tested in an orthogonal resorufin assay format with optics of excitation 525 nm/emission 598 nm as described before. The same parameters as the NADH assay were used for the resorufin assay, with the addition of (final) 133 μg/mL diaphorase and 37 μM resazurin to the assay solution. Same controls were used in both formats.

Test [2] deals with T2, Human ALDH3A1 (Homo sapiens, UniProt P30838).
T2 construct: made in house
T2 sequence (P30838 1-453): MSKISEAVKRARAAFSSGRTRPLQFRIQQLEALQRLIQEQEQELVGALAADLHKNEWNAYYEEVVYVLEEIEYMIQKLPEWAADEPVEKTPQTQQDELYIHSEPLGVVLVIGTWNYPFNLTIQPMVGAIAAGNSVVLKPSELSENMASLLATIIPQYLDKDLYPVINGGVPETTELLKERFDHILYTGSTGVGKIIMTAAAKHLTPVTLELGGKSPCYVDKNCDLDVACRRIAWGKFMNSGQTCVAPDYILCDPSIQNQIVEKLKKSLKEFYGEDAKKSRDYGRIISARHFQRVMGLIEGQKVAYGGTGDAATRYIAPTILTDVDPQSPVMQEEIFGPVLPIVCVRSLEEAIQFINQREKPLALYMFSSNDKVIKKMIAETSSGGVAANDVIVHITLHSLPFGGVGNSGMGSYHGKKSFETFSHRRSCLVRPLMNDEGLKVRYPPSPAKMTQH
Kind of test: 1,536-well enzymatic assay (NADPH fluorescence), ALDH3A1. In kind it is biochemical.
From the text: as §1, §2

Test [3] deals with T3, Human ALDH2 (Homo sapiens, UniProt P05091).
T3 construct: purchased Abcam ab87415
T3 sequence (P05091 18-517): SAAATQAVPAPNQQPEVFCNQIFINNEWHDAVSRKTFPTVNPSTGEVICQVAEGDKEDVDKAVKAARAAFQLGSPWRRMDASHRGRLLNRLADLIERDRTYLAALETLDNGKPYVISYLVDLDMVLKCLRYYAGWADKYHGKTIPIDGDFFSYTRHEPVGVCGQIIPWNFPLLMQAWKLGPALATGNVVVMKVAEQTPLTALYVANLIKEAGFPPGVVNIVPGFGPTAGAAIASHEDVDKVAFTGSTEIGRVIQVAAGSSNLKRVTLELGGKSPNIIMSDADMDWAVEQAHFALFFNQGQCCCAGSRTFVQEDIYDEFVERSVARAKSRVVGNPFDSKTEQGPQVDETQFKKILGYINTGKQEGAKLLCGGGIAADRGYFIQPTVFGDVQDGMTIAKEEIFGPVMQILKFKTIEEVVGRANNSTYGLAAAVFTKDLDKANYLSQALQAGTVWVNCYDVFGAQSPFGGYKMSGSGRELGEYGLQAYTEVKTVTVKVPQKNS
The experiment in a line: 1,536-well enzymatic assay (NADH fluorescence), ALDH2. In kind it is biochemical.
From the text: as §1, §2

The test system of test [4] is ALDH1A1. The note with it: reported ALDH target 1A1; read-out: Reported Biochemical IC50, ALDH1A1; cited from earlier work.
The test system of test [5] is ALDH2. Conditions: reported ALDH target 2; read-out: Reported Biochemical IC50, ALDH2; cited from earlier work.
Setting [6] is: validation set, 20 nM enzyme, NAD+ and propionaldehyde, read-out: Biochemical IC50 ALDH1A1.
Where [7] appears, read: validation set, 5 nM enzyme, NADP+ and benzaldehyde, read-out: Biochemical IC50 ALDH3A1.
Setting [8] is: validation set, 75 nM enzyme, NAD+ and propionaldehyde, read-out: Biochemical IC50 ALDH2.
[9] abbreviates: hits of dual cell-based screen (Table 2), read-out: Biochemical IC50 ALDH1A1.

Read-outs that look alike come from different tables or passages of the source.

For orientation: IC50 means the concentration at which inhibition is half-maximal. For `CCOc1ccc(NCC(=O)Nc2ccc(Cl)cc2C)cc1` [CID 725345], the IC50 in test [1] (setting [6]) was 770 nM; in test [2] (setting [7]) it was 5.39 µM; in test [3] (setting [8]), 2.15 µM; in test [4], 3500 nM.
With `CCN(CC)c1ccc(C=O)cc1` [DEAB, 4-N,N-diethylaminobenzaldehyde], the IC50 in test [2] (setting [7]) was 6.05 µM; in test [5], 160 nM.
With `CC(C)=CCCC(C)=CC=O` (mixture of isomers) [Citral], the IC50 stood at 10800 nM in test [1] (setting [6]) and 4.28 µM in test [3] (setting [8]).
As for `CCN(CC)C(=S)SSC(=S)N(CC)CC` [Disulfiram], the IC50 in test [2] (setting [7]) is 1.91 µM; in test [4], 150 nM.
Take `COc1ccc(C(=O)CCN(C)C)cc1F` [Aldi-2]: the IC50 in test [1] (setting [6]) was 150 nM; in test [2] (setting [7]) it was 0.04 µM; in test [3] (setting [8]) it was 0.1 µM; in test [5] it was 6400 nM; in test [4] it was 2500 nM.
Turning to `CC(C)(C)c1ccc(S(=O)(=O)/C=C/C#N)cc1` [Bay-11-7085], the half-maximal inhibitory concentration (IC50) in test [1] (setting [6]) is 90 nM; in test [2] (setting [7]), 0.54 µM; in test [3] (setting [8]), 0.05 µM; in test [5], 34 nM; in test [4], 74 nM.
With `O=c1c(-c2ccc(O)cc2)coc2cc(O[C@@H]3O[C@H](CO)[C@@H](O)[C@H](O)[C@H]3O)ccc12` [Daidzin], the IC50 in test [5] is 290 nM.
Take `Nc1ccccc1C(=O)CC(N)C(=O)O` (centres unmarked) [Kynurenine]: the IC50 in test [1] (setting [6]) stood at 40500 nM.
For `COc1cccc2cc(C(=O)CC3(O)C(=O)N(Cc4ccccc4)c4ccccc43)c(=O)oc12` (centres unmarked) [CID 2929292], the IC50 was 290 nM in test [1] (setting [6]), 21.5 µM in test [2] (setting [7]), 9.59 µM in test [3] (setting [8]) and 90 nM in test [4].
Consider CVT-10216, for which the concentration for half-maximal inhibition (IC50) is 19100 nM in test [1] (setting [6]); 17.1 µM in test [2] (setting [7]); 1.21 µM in test [3] (setting [8]); 29 nM in test [5]; 1300 nM in test [4].
As to `CC(C)N(C(=O)CCl)c1ccccc1` [Propachlor], the IC50 in test [1] (setting [9]) came to 10 nM; in test [2] (hits of dual cell-based screen (Table 2), read-out: Biochemical IC50 ALDH3A1) it was 50.1 µM; in test [3] (hits of dual cell-based screen (Table 2), read-out: Biochemical IC50 ALDH2) it was 12.6 µM.
For `C[S+](=O)([O-])c1ccc(Cn2c3c(c4cc(F)cc(F)c42)CCCC3CC(=O)O)cc1` [L-670596], in test [1] (setting [9]), the IC50 was found to be 250 nM.
With `Cc1cc2c(C(C)C)c(O)c(O)c(C=O)c2c(O)c1-c1c(C)cc2c(C(C)C)c(O)c(O)c(C=O)c2c1O` [Gossypol], the IC50 was 25600 nM in test [1] (Biochemical IC50 ALDH1A1, validation set, 20 nM enzyme, NAD+ and propionaldehyde); 27 µM in test [2]; 24.1 µM in test [3]; 75000 nM in test [4].
Take `O=C1Nc2ccccc2C1=O` [indoline-2,3-dione]: the IC50 in test [1] (setting [6]) is 10 nM; in test [2] (setting [7]), 2.41 µM; in test [3] (setting [8]), 21.5 µM; in test [4] it was 20 nM.
For the molecule `Cc1nc2ccccc2n1S(=O)(=O)c1ccc(F)cc1` [CB7], in test [3] (setting [8]), the IC50 worked out at 19.1 µM.
